# From ChEMBL document CHEMBL1201862, “PubChem BioAssay data set” (2004)
# Calls of active or inactive are those of the source.
# How the values were obtained:
# Bcl-2-related protein A1 = target: T1, Bcl-2-related protein A1 (Mus musculus, UniProt Q07440); type: functional;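 further: confirmatory dose–response counterscreen on Bfl-1, used to check hits from a UBC13 polyubiquitin inhibitor campaign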
# T1 sequence (Q07440 whole entry): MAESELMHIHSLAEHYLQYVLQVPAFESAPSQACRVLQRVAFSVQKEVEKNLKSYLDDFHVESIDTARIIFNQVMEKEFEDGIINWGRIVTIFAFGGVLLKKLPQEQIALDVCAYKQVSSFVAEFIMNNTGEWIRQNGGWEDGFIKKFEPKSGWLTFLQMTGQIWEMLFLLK
# [1] = target: T2, Ubiquitin-conjugating enzyme E2 N (Homo sapiens, UniProt P61088); type: functional
# T2 sequence (P61088 whole entry): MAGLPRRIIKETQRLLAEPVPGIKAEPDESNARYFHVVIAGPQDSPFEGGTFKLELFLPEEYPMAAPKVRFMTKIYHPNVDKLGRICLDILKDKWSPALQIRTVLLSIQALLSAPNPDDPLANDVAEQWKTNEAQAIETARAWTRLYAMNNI
# [2] = target: T2, Ubiquitin-conjugating enzyme E2 N; type: functional; remark: listed apart in the source
# [3] = Luminescent dose response cell-based high throughput screening assay for inhibitors of the Janus kinase 2 mutant JAK2V617F. [Related pubchem assays: 1446 (Primary screen.), 1521 (Confirmation assay.), 1486 (Counter screen.)]; type: functional
# [4] = Intein inhibitors as potential Tuberculosis drugs, a cytotoxicity screen. [Related pubchem assays (depositor defined):AID2221, AID2223, AID434968, AID435010, AID449749, AID449750, AID489010]; type: functional
# HEK293 = experiment: inhibitors of LMP1-driven NF-kB reporter, dose response, cell-based, HEK293, luciferase, cherry-pick (AID 588343); type: functional; details: Homo sapiens
# [5] = target: T3, Replicative DNA helicase DnaB (Mycobacterium tuberculosis, UniProt P9WMR3); experiment: DnaB intein splicing inhibitors, dose response, biochemical, cell-free fluorescence (AID 449749); type: functional
# T3 sequence (P9WMR3 whole entry): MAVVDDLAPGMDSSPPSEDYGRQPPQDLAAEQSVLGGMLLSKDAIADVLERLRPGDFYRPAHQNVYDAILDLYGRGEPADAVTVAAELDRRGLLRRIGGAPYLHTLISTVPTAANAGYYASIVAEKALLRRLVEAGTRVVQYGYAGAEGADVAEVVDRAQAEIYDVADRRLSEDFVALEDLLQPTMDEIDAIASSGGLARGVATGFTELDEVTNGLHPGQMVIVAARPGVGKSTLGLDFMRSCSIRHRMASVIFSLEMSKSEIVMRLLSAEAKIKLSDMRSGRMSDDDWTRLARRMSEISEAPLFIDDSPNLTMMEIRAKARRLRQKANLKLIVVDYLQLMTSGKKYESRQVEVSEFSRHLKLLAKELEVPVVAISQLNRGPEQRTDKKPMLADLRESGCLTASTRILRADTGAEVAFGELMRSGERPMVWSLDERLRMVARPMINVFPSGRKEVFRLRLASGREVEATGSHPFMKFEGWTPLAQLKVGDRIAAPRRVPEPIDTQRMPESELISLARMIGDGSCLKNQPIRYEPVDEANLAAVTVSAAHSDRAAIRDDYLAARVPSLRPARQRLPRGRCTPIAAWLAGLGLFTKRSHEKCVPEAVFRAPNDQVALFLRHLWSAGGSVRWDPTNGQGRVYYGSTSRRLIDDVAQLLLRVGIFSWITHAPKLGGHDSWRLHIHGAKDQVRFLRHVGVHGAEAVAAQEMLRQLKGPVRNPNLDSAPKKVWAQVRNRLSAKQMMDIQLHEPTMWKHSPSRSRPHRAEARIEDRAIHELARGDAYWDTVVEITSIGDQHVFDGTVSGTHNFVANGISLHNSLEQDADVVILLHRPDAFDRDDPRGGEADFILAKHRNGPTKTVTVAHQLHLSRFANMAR
# Protein RecA = target: T4, Protein RecA (Mycobacterium tuberculosis, UniProt P9WHJ3); experiment: Fluorescence Cell-Free Homogeneous Dose Retest to Identify Inhibitors of RecA-Intein Splicing Activity. [Related pubchem assays (depositor defined):AID2097, AID2223, AID489010, AID492950]; type: functional
# T4 sequence (P9WHJ3 whole entry): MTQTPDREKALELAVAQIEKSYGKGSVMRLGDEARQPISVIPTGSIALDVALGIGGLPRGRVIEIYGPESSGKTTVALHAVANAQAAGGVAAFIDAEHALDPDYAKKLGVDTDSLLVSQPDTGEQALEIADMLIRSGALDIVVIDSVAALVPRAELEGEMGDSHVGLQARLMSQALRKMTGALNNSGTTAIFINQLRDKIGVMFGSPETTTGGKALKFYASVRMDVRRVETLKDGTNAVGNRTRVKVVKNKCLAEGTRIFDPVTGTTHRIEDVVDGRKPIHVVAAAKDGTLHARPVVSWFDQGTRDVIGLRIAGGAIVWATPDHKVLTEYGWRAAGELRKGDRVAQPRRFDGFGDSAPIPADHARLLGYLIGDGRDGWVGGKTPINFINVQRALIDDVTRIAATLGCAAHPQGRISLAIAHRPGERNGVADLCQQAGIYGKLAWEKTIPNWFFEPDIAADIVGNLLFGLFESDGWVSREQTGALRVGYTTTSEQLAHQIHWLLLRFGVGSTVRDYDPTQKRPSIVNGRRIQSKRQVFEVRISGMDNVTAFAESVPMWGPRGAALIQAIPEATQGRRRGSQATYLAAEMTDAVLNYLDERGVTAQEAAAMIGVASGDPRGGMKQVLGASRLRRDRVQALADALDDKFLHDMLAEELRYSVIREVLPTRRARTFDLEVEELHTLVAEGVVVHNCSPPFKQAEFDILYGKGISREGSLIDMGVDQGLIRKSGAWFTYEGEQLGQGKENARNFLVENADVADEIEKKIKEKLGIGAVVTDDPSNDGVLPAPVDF
# [6] = target: Beta-2 adrenergic receptor (Homo sapiens, UniProt P07550); experiment: beta2AR agonists driving receptor internalization, dose response, cell-based, FAP fluorogen, flow cytometry, cherry pick 1 (AID 588763); type: functional
# Sequence of Beta-2 adrenergic receptor (P07550 whole entry): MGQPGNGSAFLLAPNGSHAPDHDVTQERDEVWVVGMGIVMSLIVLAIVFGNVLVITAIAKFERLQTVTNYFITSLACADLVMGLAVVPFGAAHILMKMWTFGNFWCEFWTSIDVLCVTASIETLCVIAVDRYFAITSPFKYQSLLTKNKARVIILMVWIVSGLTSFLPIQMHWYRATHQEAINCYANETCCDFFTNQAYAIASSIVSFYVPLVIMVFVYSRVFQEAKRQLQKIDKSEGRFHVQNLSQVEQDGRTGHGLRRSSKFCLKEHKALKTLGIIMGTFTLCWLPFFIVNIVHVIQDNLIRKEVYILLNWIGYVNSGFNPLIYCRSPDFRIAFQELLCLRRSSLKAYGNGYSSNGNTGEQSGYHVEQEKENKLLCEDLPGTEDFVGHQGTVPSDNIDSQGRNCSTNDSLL
# [7] = HEK293T cell cytotoxicity, dose response, cytotoxicity control for HIV Vif inhibitor project, cherry-picks (AID 652208); type: functional, cell-based
# Coagulation factor XII = target: T5, Coagulation factor XII (Homo sapiens, UniProt P00748); experiment: Factor XIIa Dose Response Confirmation from Single Well HTS. [Related pubchem assays (depositor defined):AID701]; type: functional
# T5 sequence (P00748 whole entry): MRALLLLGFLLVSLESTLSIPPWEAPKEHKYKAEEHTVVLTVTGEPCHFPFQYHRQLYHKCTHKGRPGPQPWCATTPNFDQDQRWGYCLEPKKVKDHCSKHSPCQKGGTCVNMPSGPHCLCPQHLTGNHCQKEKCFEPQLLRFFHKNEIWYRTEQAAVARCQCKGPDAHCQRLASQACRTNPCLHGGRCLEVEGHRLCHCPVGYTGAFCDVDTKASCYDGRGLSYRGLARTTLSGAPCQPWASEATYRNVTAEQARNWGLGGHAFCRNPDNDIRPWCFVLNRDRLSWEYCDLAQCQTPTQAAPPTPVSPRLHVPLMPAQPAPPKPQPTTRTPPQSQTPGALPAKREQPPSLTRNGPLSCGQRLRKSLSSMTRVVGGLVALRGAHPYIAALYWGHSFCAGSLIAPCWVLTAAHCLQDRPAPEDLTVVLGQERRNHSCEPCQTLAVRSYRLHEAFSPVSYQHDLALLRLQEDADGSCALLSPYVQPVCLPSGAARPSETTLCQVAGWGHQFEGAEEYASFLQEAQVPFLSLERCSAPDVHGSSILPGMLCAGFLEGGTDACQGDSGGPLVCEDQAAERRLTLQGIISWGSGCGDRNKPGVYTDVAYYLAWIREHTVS
# [8] = inhibitors of intracellular T. cruzi replication, confirmation, NIH3T3 host cells, beta-gal luminescence (AID 2044); type: functional, cell-based;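 further: intracellular parasites grown in NIH/3T3 mouse fibroblasts as host cells; luminescent beta-galactosidase reporter signal from transgenic T. cruzi replicating inside host cells; inhibitors lower the luminescence signal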
# [9] = cytotoxicity toward NIH3T3 fibroblasts, dose response, counter-screen, cell-based, ATP luminescence, mouse fibroblasts (AID 2010); type: functional;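 further: cells exposed to compound for about 90 hours before reading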
# [10] = target: T6, Type-1 angiotensin II receptor (Homo sapiens, UniProt P30556); experiment: AT1 receptor agonists, dose response, selectivity assay for APJ receptor agonist project, cell-based, uHTS hits (AID 488865); type: functional;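 further: beta-arrestin recruitment to AT1 measured by enzyme fragment complementation luminescence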
# T6 sequence (P30556 whole entry): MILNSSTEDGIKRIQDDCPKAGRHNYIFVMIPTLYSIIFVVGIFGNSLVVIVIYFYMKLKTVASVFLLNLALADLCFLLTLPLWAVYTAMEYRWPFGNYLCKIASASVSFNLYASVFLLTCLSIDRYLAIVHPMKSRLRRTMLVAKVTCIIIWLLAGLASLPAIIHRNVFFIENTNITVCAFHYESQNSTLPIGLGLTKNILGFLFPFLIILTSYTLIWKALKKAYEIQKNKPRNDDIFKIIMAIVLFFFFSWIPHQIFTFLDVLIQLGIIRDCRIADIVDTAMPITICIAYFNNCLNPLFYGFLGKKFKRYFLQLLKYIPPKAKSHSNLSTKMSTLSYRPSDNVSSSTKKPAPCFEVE
# [11] = target: T7, G-protein coupled receptor 35 (Homo sapiens, UniProt Q9HC97); experiment: SAR analysis of Agonists of the GPR35 Receptor using an Image-Based Assay - Set 4. [Related pubchem assays (depositor defined):AID2013, AID2026]; type: functional
# T7 sequence (Q9HC97 whole entry): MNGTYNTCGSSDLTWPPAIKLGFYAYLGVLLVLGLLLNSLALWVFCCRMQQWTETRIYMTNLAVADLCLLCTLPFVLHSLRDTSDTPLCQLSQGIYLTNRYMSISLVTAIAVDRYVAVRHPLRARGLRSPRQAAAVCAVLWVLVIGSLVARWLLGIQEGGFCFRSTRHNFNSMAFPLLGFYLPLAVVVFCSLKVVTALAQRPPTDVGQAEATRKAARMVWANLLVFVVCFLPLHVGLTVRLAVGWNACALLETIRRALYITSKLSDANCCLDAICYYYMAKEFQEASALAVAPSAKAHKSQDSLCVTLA
# Cannabinoid receptor 1 [12] = target: T8, Cannabinoid receptor 1 (Homo sapiens, UniProt P21554); experiment: SAR analysis of agonists of the Cannabinoid Receptor 1 using an Image-Based Assay - Set 4. [Related pubchem assays (depositor defined):AID2013, AID2026]; type: functional
# T8 sequence (P21554 whole entry): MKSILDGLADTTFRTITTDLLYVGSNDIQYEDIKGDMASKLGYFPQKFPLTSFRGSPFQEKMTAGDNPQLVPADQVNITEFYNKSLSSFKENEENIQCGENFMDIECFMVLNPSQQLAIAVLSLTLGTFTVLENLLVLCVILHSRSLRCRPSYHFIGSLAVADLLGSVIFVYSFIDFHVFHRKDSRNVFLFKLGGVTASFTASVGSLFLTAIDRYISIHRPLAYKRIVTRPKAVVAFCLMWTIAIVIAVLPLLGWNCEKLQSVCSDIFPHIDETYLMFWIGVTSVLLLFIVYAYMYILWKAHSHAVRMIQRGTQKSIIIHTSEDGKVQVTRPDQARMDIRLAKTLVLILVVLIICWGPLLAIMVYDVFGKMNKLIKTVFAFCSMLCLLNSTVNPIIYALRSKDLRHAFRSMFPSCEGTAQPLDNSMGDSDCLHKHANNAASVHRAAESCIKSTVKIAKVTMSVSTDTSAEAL
# [13] = target: T7, G-protein coupled receptor 35; experiment: SAR analysis of Antagonists of the GPR35 Receptor using an Image-Based Assay - Set 6. [Related pubchem assays (depositor defined):AID2013, AID2026]; type: functional
# Cannabinoid receptor 1 [14] = target: T8, Cannabinoid receptor 1; experiment: SAR analysis of antagonists of the Cannabinoid Receptor 1 using an Image-Based Assay - Set 4. [Related pubchem assays (depositor defined):AID2013, AID2026]; type: functional
# [15] = target: G-protein coupled receptor 55 (Homo sapiens, UniProt Q9Y2T6); experiment: SAR Analysis of Selective Antagonists of GPR55 using an Image-Based Assay - Set 4. [Related pubchem assays (depositor defined):AID2013, AID2026]; type: functional;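 further: antagonism of response to 5 µM lysophosphatidylinositol agonist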
# Sequence of G-protein coupled receptor 55 (Q9Y2T6 whole entry): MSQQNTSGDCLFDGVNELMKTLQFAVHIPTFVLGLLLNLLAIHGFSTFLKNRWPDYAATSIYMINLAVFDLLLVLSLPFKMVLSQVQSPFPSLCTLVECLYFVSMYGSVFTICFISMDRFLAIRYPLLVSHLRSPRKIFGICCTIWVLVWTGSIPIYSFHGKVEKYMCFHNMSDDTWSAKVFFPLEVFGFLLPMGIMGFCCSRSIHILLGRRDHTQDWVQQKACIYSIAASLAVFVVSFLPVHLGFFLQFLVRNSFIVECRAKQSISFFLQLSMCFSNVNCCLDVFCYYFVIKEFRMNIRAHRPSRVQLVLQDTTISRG
# Cannabinoid receptor 2 [16] = target: T9, Cannabinoid receptor 2 (Homo sapiens, UniProt P34972); experiment: SAR analysis of antagonists of the Cannabinoid Receptor 2 using an Image-Based Assay - Set 3. [Related pubchem assays (depositor defined):AID2013, AID2026]; type: functional
# T9 sequence (P34972 whole entry): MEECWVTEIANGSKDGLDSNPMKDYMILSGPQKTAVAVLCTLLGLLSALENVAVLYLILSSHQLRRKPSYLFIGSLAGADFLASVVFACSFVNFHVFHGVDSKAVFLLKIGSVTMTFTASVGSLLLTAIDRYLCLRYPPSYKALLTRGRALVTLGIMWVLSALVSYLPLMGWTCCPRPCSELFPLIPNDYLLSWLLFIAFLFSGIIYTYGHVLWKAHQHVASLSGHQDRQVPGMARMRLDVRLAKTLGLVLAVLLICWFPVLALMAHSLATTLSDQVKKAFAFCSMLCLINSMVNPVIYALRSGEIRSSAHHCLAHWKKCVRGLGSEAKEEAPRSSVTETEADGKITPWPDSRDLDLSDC
# Cannabinoid receptor 2 [17] = target: T9, Cannabinoid receptor 2; experiment: SAR analysis of agonists of the Cannabinoid Receptor 2 using an Image-Based Assay - Set 3. [Related pubchem assays (depositor defined):AID2013, AID2026]; type: functional
# Mu-type opioid receptor [18] = target: T10, Mu-type opioid receptor (Homo sapiens, UniProt P35372); experiment: MOR agonists by imaging, SAR follow-up, image-based (AID 2352); type: functional
# T10 sequence (P35372 whole entry): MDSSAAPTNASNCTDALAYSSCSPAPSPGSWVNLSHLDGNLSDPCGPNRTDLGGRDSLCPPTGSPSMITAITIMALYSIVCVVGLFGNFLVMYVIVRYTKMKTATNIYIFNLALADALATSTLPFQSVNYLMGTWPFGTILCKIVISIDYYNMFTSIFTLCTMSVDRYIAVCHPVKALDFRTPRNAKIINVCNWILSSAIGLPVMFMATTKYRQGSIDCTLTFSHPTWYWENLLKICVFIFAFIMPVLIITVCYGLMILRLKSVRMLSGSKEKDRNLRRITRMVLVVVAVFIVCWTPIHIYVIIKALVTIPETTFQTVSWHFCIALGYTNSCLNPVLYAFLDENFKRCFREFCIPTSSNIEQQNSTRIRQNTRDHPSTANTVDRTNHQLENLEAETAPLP
# [19] = target: T11, Delta-type opioid receptor (Homo sapiens, UniProt P41143); experiment: DOR agonists, SAR follow-up, image-based (AID 2370); type: functional
# T11 sequence (P41143 whole entry): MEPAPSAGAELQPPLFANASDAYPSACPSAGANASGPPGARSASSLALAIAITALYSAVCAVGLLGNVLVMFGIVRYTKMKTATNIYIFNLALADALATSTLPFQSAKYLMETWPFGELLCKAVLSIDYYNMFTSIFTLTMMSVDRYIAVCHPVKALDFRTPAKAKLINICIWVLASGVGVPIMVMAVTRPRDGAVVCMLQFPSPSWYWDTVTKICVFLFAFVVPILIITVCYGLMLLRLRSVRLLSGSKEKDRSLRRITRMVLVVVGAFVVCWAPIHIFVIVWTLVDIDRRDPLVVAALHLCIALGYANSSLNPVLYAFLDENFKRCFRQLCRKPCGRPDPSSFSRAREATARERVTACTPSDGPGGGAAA
# [20] = target: T12, Kappa-type opioid receptor (Homo sapiens, UniProt P41145); experiment: KOR antagonists by imaging, SAR follow-up, image-based (AID 2348); type: functional
# T12 sequence (P41145 whole entry): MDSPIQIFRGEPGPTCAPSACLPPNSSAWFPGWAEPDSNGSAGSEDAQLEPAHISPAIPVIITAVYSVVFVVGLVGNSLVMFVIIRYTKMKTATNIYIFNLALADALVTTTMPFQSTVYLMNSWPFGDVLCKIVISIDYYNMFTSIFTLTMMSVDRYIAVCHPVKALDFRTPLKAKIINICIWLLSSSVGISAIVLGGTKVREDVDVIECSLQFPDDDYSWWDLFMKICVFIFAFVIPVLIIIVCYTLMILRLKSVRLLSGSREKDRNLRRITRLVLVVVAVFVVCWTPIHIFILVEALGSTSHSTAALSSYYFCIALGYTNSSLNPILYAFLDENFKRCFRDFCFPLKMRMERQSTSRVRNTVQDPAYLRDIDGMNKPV
# Mu-type opioid receptor [21] = target: T10, Mu-type opioid receptor; experiment: MOR antagonists, SAR follow-up, image-based (AID 2420); type: functional;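 further: compounds added before stimulation of receptor with agonist DAMGO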
# [22] = target: T12, Kappa-type opioid receptor; experiment: KOR agonist analogs, imaging readout, SAR follow-up, image-based (AID 2359); type: functional
# [23] = target: T11, Delta-type opioid receptor; experiment: DOR antagonists, SAR follow-up, image-based (AID 2357); type: functional
# [24] = target: T12, Kappa-type opioid receptor; experiment: kappa opioid receptor blockers, cell-based, luminescence, beta-arrestin, SAR follow-up (AID 2285); type: functional
# [25] = target: T12, Kappa-type opioid receptor; experiment: SAR analysis of small molecule agonists of the kappa opioid receptor via a luminescent beta-arrestin assay - Set 3. [Related pubchem assays (depositor defined):AID1777, AID1785, AID1786, AID1966, AID2133, AID2136, AID2284, AID2500]; type: functional
# 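Wherever CC50 is given: cells exposed to compound for 72 hours before luminescence readout.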
structure (smiles),measurement,setting,value
COc1ccc(OC)c(/C=C/C(=O)OCC(=O)c2c(N)n(C)c(=O)n(C)c2=O)c1,IC50,Bcl-2-related protein A1,> 20 µM (inactive)
same,IC50,[1],14 µM (active)
same,IC50,[2],> 20 µM (inactive)
Clc1ccc(-n2nnnc2Sc2ncnc3sccc23)cc1,IC50,[3],0.787 µM (active)
same,CC50,[4],9.7 µM (active)
same,AC50,HEK293,10.7 µM (active)
same,AC50,[5],3.76 µM (active)
same,EC50,Protein RecA,1.03 µM (active)
same,EC50,[6],10.5 µM (inactive)
same,AC50,[7],10.8 µM (active)
N#Cc1ccc(NC(=O)COC(=O)CNC(=O)C2CCCCC2)cc1,IC50,Coagulation factor XII,> 50 µM (inactive)
Clc1cccc(CN2CCc3c([nH]c4ccccc34)C2)c1,EC50,[8],3.73 µM (active)
same,EC50,[9],> 60 µM (not active)
same,EC50,[10],> 100 µM (inactive)
Cc1nnc(-c2cccc3ccccc23)c2cn(-c3cccc(Br)c3)nc12,EC50,[11],> 32 µM (inactive)
same,EC50,Cannabinoid receptor 1 [12],> 32 µM (inactive)
same,IC50,[13],28.2 µM (inactive)
same,IC50,Cannabinoid receptor 1 [14],0.661 µM (active)
same,IC50,[15],5.27 µM (active)
same,IC50,Cannabinoid receptor 2 [16],3.87 µM (active)
same,EC50,Cannabinoid receptor 2 [17],> 32 µM (inactive)
Oc1ccc(C=NNc2ccnc3cc(Cl)ccc23)cc1O,EC50,Mu-type opioid receptor [18],> 32 µM (inactive)
same,EC50,[19],> 32 µM (inactive)
same,IC50,[20],24.8 µM (inactive)
same,IC50,Mu-type opioid receptor [21],> 32 µM (inactive)
same,EC50,[22],> 32 µM (inactive)
same,IC50,[23],18.9 µM (inactive)
same,IC50,[24],> 10 µM (inactive)
CCCCN(Cc1cc2cc(Cl)ccc2[nH]c1=O)C(=O)c1ccccn1,EC50,[25],1.87 µM (active)
